Assay results as given in patent US6818780B2, “P-hydroxyphenyl propionic acid derivatives as antiproliferative agents” (Consejo Superior de Investigaciones Cientificas, priority 2000, dated 2004).

How the values were obtained:
murine splenocytes [1] = test: Test of lymphocyte proliferation: proliferation of murine splenocytes (tritiated thymidine incorporation); format: cell-based, Bal b/c mice; settings: range 100-0.75 μg/ml
[2] = system: human peripheral blood mononuclear cells; test: Stability studies: antiproliferative activity of lactone kept one year in DMSO, human peripheral blood mononuclear cells; format: cell-based; settings: for Proliferation of human peripheral blood mononuclear cells, Medium (cpm ± DS) / Proliferation of human peripheral blood mononuclear cells, PHA 10 μg/ml (cpm ± DS) / Proliferation of human peripheral blood mononuclear cells, PHA + rhIL-2 (cpm ± DS): sample kept one year at room temperature at 40.0 mg/ml in DMSO
Method: General culture conditions: All cell cultures were developed under conditions of sterility in a vertical laminar flow chamber, using single-use sterile materials or materials sterilised in an autoclave or with ethylene oxide. The cultures were conserved in a stove kept at a temperature of 37° C., in an atmosphere with 5% CO2 and relative humidity of 95%. In the various experiments performed, the purified CMSP cell preparations were incubated in sterile dishes with 96 wells at concentrations of 5×10^4 cells/well (200 μl) in the presence of different concentrations of different mitogens for 5 days.
The method used for quantifying the cell proliferation was analysis of the incorporation of ^3H-thymidine (^3H-T) into DNA synthesised de novo, detecting the emission of β radiation from the dry extracts of cell cultures to which the tritiated base had been added before its finalisation and collection. The synthesis of DNA was done in triplicate on sterile dishes with 96 flat-bottom wells.
From 20 to 24 hour prior to terminating the cell culture, 1 μCi of ^3H-T was added to each well containing medium; the cultures were gathered by suction through a glass filter, using a Skatron culture collector for this.
The synthesis of DNA has been expressed in counts per minute (cpm). Each test was conducted in triplicate, with those data having a variability greater than 10% compared to the mean of the triplicate being rejected, since they could indicate a technical error or contamination in the culture. The cultures were carried out at a constant cell volume per well, as well as at a constant volume of 200 μl.
The sample remains for one year at room temperature and at a concentration of 40.0 mg/ml in DMSO.

murine splenocytes [3] = test: Test of lymphocyte proliferation: proliferation of murine splenocytes (tritiated thymidine incorporation); format: cell-based, Bal b/c mice; settings: for Proliferation of murine splenocytes, mitogen Con A 2.5 μg/ml (cpm ± DS) / Proliferation of murine splenocytes, mitogen LPS 10 μg/ml (cpm ± DS) / Proliferation of murine splenocytes, mitogen PHA 50 μg/ml (cpm ± DS) / Proliferation of murine splenocytes, mitogen a CD3 20 μg/ml (cpm ± DS): 72 h incubation
Method: Proliferation of Murine Splenocytes. Material and Methods
Test of Lymphocyte Proliferation
Culture medium: DMEM+penicillin 50 UI/ml+streptomycin 50 µg/ml+glutamine 2 mM+10% foetal calf serum (complete medium) (FLOW).
Bal b/c mice were used, male, aged 6-8 weeks (IFFA-CREDO).
The cell “pellet” is resuspended in complete medium at a concentration of 4×10^6 cells/ml
In a dish with 96 flat-bottom wells, seriated dilutions are made of the mitogen problem sample with or without “lactone” in a volume of […] in complete medium to which […] 2ME have been added. All the determinations are made in triplicate.
100 μl of the cell suspension are then added, leaving a final volume of 200 μl.
The dish is incubated in a stove at 37° C., 5% CO2 for 66 h.
Following that incubation period, 1 μCi of tritiated thymidine is added to each well.
The dish is again incubated for 6 h.
Once that new incubation period has ended, the dish is processed in a Skatron Harvester, using special Wathman filter paper for this.
The cpm are determined in a liquid scintillation counter.
Negative control: cells in the presence of complete culture medium.
Positive control: cells in the presence of some mitogen.
Arithmetic mean of cpm±standard deviation (1)
The statistical significance is determined by the Student t method.
The results are summarised in the following tables (the cpm are stated following a pulse of tritiated thymidine. The samples of splenocytes were cultivated for 72 h in the presence of mitogen and lactone at the stated concentrations).

[4] = murine splenocytes, 72 h with mitogen and lactone

C=C1C(=O)OC(CCc2ccc(OC)cc2)C1C (stereo not shown) [lactone]
Cytotoxicity effects on murine splenocytes (murine splenocytes [1]): Nor was are cytotoxicity effects found | Proliferation of human peripheral blood mononuclear cells, Medium (cpm ± DS) ([2]; Lactone 0.25 μg/ml): 283 ± 9 cpm | Proliferation of human peripheral blood mononuclear cells, PHA 10 μg/ml (cpm ± DS) ([2]; Lactone 0.25 μg/ml): 60428 ± 5820 cpm | Proliferation of human peripheral blood mononuclear cells, PHA + rhIL-2 (cpm ± DS) ([2]; Lactone 0.25 μg/ml): 144693 ± 9470 cpm | Proliferation of human peripheral blood mononuclear cells, Medium (cpm ± DS) ([2]; Lactone 100 μg/ml): 47 ± 5 cpm | Proliferation of human peripheral blood mononuclear cells, PHA 10 μg/ml (cpm ± DS) ([2]; Lactone 100 μg/ml): 906 ± 251 cpm | Proliferation of human peripheral blood mononuclear cells, PHA + rhIL-2 (cpm ± DS) ([2]; Lactone 100 μg/ml): 341 ± 21 cpm | Stability over time of the product dissolved in dimethylsulphoxide (DMSO) ([2]; one year at room temperature, 40.0 mg/ml in DMSO, judged by antiproliferative activity): the antiproliferative biological activity of lactone is demonstrated | Proliferation of murine splenocytes, mitogen Con A 2.5 μg/ml (cpm ± DS) (murine splenocytes [3]; Lactone 0.75 μg/ml): 131,523 cpm | Proliferation of murine splenocytes, mitogen Con A 2.5 μg/ml (cpm ± DS) (murine splenocytes [3]; Lactone 1.5 μg/ml): 150,400 cpm | Proliferation of murine splenocytes, mitogen Con A 2.5 μg/ml (cpm ± DS) (murine splenocytes [3]; Lactone 3 μg/ml): 92,600 ± 100 cpm | Proliferation of murine splenocytes, mitogen Con A 2.5 μg/ml (cpm ± DS) (murine splenocytes [3]; Lactone 6 μg/ml): 78,200 ± 725 cpm | Proliferation of murine splenocytes, mitogen Con A 2.5 μg/ml (cpm ± DS) (murine splenocytes [3]; Lactone 12 μg/ml): 370 ± 20 cpm | Proliferation of murine splenocytes, mitogen Con A 2.5 μg/ml (cpm ± DS) (murine splenocytes [3]; Lactone 25 μg/ml): 244 ± 15 cpm | Proliferation of murine splenocytes, mitogen LPS 10 μg/ml (cpm ± DS) (murine splenocytes [3]; Lactone 25 μg/ml): 3,200 ± 400 cpm | Proliferation of murine splenocytes, mitogen PHA 50 μg/ml (cpm ± DS) (murine splenocytes [3]; Lactone 25 μg/ml): 21,000 cpm | Proliferation of murine splenocytes, mitogen a CD3 20 μg/ml (cpm ± DS) (murine splenocytes [3]; Lactone 25 μg/ml): 5,600 ± 300 cpm | Proliferation of murine splenocytes, mitogen Con A 2.5 μg/ml (cpm ± DS) (murine splenocytes [3]; Lactone 50 μg/ml): 190 ± 10 cpm | Proliferation of murine splenocytes, mitogen LPS 10 μg/ml (cpm ± DS) (murine splenocytes [3]; Lactone 50 μg/ml): 2,700 ± 120 cpm | Proliferation of murine splenocytes, mitogen PHA 50 μg/ml (cpm ± DS) (murine splenocytes [3]; Lactone 50 μg/ml): 19,000 cpm | Proliferation of murine splenocytes, mitogen a CD3 20 μg/ml (cpm ± DS) (murine splenocytes [3]; Lactone 50 μg/ml): 1,235 ± 200 cpm | Proliferation of murine splenocytes, mitogen Con A 2.5 μg/ml (cpm ± DS) (murine splenocytes [3]; Lactone 100 μg/ml): 147 ± 10 cpm | Proliferation of murine splenocytes, mitogen LPS 10 μg/ml (cpm ± DS) (murine splenocytes [3]; Lactone 100 μg/ml): 614 ± 35 cpm | Proliferation of murine splenocytes, mitogen PHA 50 μg/ml (cpm ± DS) (murine splenocytes [3]; Lactone 100 μg/ml): 19,500 cpm | Proliferation of murine splenocytes, mitogen a CD3 20 μg/ml (cpm ± DS) (murine splenocytes [3]; Lactone 100 μg/ml): 285 ± 20 cpm | Inhibition of proliferation induced by ConA, antiCD3 and LPS (murine splenocytes [3]; [4]): clearly demonstrated its capacity for inhibiting proliferation | Inhibition of proliferation induced by PHA (murine splenocytes [3]; [4]): but not that induced by PHA | Proliferative effect per se on murine splenocytes (murine splenocytes [3]; no mitogen, range 100-0.75 μg/ml, sample dissolved in DMSO at 40.0 mg/ml): No effect
